Experimental data from patent publication US20140288115A1, “COMPOSITIONS AND METHODS FOR TREATING BRAIN CANCER” (UNIVERSITY OF SOUTHERN CALIFORNIA, priority 2011, published 2014).

What was measured:
[1] = system: TMZ-resistant glioma cell lines; test: cytotoxicity of noscapine in TMZ-resistant glioma cell lines; format: cell-based
[2] = system: TMZ-resistant tumor cells; test: migration and invasion of TMZ-resistant tumor cells; format: cell-based
[3] = system: TMZ-resistant U251 glioma cells; test: intracranial rodent xenograft tumor model, survival; format: in vivo, nude mice
Excerpt: TMZ-resistant U251 glioma cells (R) were implanted intracranially into nude mice. After 7 days, treatment was initiated. […] Survival was used as an endpoint; * signifies statistical significance (p<0.05).
After 7 days, treatment was initiated.

[4] = in vivo, cited from earlier work

## COc1ccc2c(c1OC)C(=O)O[C@@H]2[C@H]1c2c(cc3c(c2OC)OCO3)CCN1C [noscapine, (3S)-6,7-Dimethoxy-3-[(5R)-5,6,7,8-tetrahydro-4-methoxy-6-methyl-1,3-dioxolo (4,5-g)isoquinolin-5-yl]-1(3H)-isobenzofuranone]
[1]; 4 different TMZ-resistant glioma cell lines
  cell death: caused cell death
[1]; TMZ-resistant glioma cell lines, prolonged arrest causes cell cytotoxicity
  cell cycle arrest: caused an arrest in the G2/M phase of cell cycle
[2]
  invasion of TMZ-resistant tumor cells: decreased
  migration of TMZ-resistant tumor cells: decreased
[3]; animal models
  tumor growth: reduced tumor growth
[3]; noscapine 225 mg/kg twice daily by gavage, treatment from day 7 after implantation
  survival of TMZ-resistant tumor bearing animals: significantly enhanced survival
[4]; po
  oral bioavailability: orally bioavailable
[4]
  crossing of the blood-brain-barrier: known to cross the blood-brain-barrier
